Data on 20 compounds can be found in US7105679B2, “Heteroatom containing tetracyclic derivatives as selective estrogen receptor modulators” (priority 2001, dated 2006).

The test system of test [1] is Ishikawa cells. As to the kind of experiment: Alkaline Phosphatase Assay in Human Endometrial Ishikawa Cells (agonist and antagonist mode). It counts as cell-based. The following applies: number in brackets = number of tests, NA = no detected activity at test concentration; for IC50: antagonist mode with 10 nM 17β-estradiol; for EC50: agonist mode. As for the experimental part:
This assay was run according to the procedure described by Albert et a., Cancer Res, […], 50(11), 330-6-10, with minor modification.
Ishikawa cells (from ATCC) were maintained in DMEM/F12 (1:1) phenol red free medium (Gibco) supplemented with 10% calf serum (Hyclone). 24 hours prior to testing, the medium was changed to DMEM/F12 (1:1) phenol red free containing 2% calf serum.
Compounds to be tested in the agonist mode were added to the culture media at varying concentrations. Compounds to be treated in the antagonist mode were prepared similarly, and 10 nM 17β-estradiol was also added to the culture media. The cells were then incubated at 37° C. for 3 days. On the fourth day, the media was remove, 1 volume of 1× Dilution Buffer (Clontech) was added to the well followed by addition of 1 volume of Assay Buffer (Clontech). The cells were then incubated at room temperature for 5 minutes. […] The cells were incubated at room temperature for 10 minutes and then quantified on a luminometer. The increase of chemiluminescence over vehicle control was used to calculate the increase in alkaline phosphatase activity.

Test [2] deals with MCF-7 cells. The test can be described thus: MCF-7 Cell Proliferation Assay (14C-thymidine, agonist and antagonist mode). Conditions: number in brackets = number of tests, NA = no detected activity at test concentration; for EC50: MCF7, agonist mode. It counts as cell-based. As to the method: This assay was run according to the procedure described by Welshons, et al., (Breast Cancer Res. Treat., 1987, 10(2), 169-75), with minor modification.
Briefly, MCF-7 cells (from Dr. C. Jordan, Northwestern University) were maintained in RPMI 1640 phenol red free medium (Gibco) in 10% FBS (Hyclone), supplemented with bovine insulin and non-essential amino acid (Sigma). The cells were initially treated with 4-hydoxyltamoxifen (10^−8 M) and let stand at 37° C. for 24 hours. Following this incubation with tamoxifen, the cells were treated with compounds at various concentrations.
Compounds to be tested in the agonist mode were added to the culture media at varying concentrations. Compounds to be treated in the antagonist mode were prepared similarly, and 10 nM 17β-estradiol was also added to the culture media. The cells were incubated for 24 hours at 37° C. Following this incubation, 0.1 μCi of ^14C-thymidine (56 mCi/mmol, Amersham) was added to the culture media and the cells were incubated for an additional 24 hours at 37° C. The cells were then washed twice with Hank's buffered salt solution (HBSS) (Gibco) and counted with a scintillation counter. The increase in the ^14C-thymidine in the compound treated cells relative to the vehicle control cells were reported as percent increase in cell proliferation.

In test [3] the target is T1, human estrogen receptor α (Homo sapiens, UniProt P03372).
T1 construct: purchased Panvera
T1 sequence (P03372 1-595): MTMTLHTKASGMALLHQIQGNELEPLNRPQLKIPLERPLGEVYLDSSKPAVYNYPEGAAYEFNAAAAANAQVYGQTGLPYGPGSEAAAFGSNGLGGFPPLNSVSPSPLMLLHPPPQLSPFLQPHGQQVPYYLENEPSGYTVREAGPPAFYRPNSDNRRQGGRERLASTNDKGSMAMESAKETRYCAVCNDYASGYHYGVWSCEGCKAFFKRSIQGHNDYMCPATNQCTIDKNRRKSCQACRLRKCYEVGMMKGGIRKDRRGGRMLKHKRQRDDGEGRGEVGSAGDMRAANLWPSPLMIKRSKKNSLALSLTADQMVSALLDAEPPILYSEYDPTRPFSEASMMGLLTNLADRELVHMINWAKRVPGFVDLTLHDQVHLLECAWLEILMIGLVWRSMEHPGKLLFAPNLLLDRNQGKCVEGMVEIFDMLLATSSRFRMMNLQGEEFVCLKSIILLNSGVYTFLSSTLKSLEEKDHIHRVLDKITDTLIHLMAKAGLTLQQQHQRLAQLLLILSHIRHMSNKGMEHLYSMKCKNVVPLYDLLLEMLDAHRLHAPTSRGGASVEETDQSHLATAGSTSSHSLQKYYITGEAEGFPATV
As to the kind of experiment: Estrogen Receptor α Flash Plate Assay (binding of radiolabeled estrogen). As for the experimental part:
This assay monitors binding of radiolabeled estrogen to the estrogen receptor. It is performed on a BioMek 2000 (Beckman). Plates are read in a scintillation counter (Packard TopCount), with decreased counts an indication of binding of a compound to the receptor.
The plate was sealed and incubated at 4° C. overnight.
On day two, each well was washed three times with 200 μL PBS, pH 7.2, at room temperature. To each well was then added 98 μL radiolabeled estrogen (0.5 nM, which equals 6 nCi for a 120 Ci/mmol batch, Amersham), diluted in ESB and 5 mM dithiothreitol (DTT). To individual wells were then added 2.5 μL test compound diluted in 30% (v/v) dimethyl sulfoxide/50 mM HEPES, pH 7.5. The wells were mixed three times by aspiration, the plate sealed and incubated at room temperature for one hour. The wells were then counted for 1 min in a TopCount scintillation counter (Packard).

Setting [4] is: Homo sapiens, MCF7, antagonist mode with 10 nM 17β-estradiol.
Where [5] appears, read: flash plate binding, 0.5 nM radiolabeled estrogen, number in brackets = No. of determinations, NA = no detected activity at test concentration, read-out: Estrogen Receptor α in μM (No.).
Where [6] appears, read: antagonist mode with 10 nM 17β-estradiol.

Read-outs that look alike come from different tables or passages of the source.

With `COc1ccc2c(c1)O[C@@H](c1ccc(OCCN3CCCCC3)cc1)C1=C2COc2cc(OC)ccc21` (single isomer, unassigned) [Compound 173, 5S*-(+)-1-{2-[4-(2,8-Dimethoxy-5,11-dihydro-chromeno[4,3-c]chromen-5-yl)-phenoxy]-ethyl}-piperidine], the IC50 is > 10000 nM in test [1] (Homo sapiens), > 10000 nM in test [2] (setting [4]) and 0.17 µM in test [3] (setting [5]).

For the compound `CN(C)CCOc1ccc(C2Oc3cc(O)ccc3C3=C2c2ccc(O)cc2OCC3)cc1` (single isomer, unassigned) [Compound 164], the figures for the IC50 in test [1] and in test [2] (setting [6]) were 61 nM and 293 nM, respectively.

Regarding `CC(C)(C)C(=O)Oc1ccc2c(c1)OC(c1ccc(OCCN3CCCCC3)cc1)C1=C2COc2cc(O)ccc21` (single isomer, unassigned) [Compound 89, 2,2-Dimethyl-propionic acid 8-hydroxy-11S*-(+)-[4-(2-piperidin-1-yl-ethoxy)-phenyl]-5,11-dihydro-chromeno[4,3-c]chromen-2-yl ester], the results for the IC50 in test [1], in test [2] (setting [6]) and in test [3] (setting [5]) were 10 nM, 845 nM and > 1 µM, respectively.

By EC50 is commonly meant the concentration at which the effect is half-maximal. Higher therefore signals a less potent agent. Take `CC(C)(C)C(=O)Oc1ccc2c(c1)OC(C)(c1ccc(OCCN3CCCCCC3)cc1)C1=C2COc2cc(OC(=O)C(C)(C)C)ccc21` (stereo not drawn) [Compound 33, 11-[4-(2-azepan-1-yl-ethoxy)-phenyl]-8-(2,2-dimethyl-propionyloxy)-11-methyl-5,11-dihydro-chromeno[4,3-c]chromen-2-yl ester]: the EC50 in test [1] (Homo sapiens) and in test [2] (Homo sapiens) was > 10000 nM in each case. In addition, the figures for the IC50 in test [1] (Homo sapiens) and in test [2] (setting [4]) were 1000 nM and 4800 nM, respectively.

On to `CC(C)(C)C(=O)Oc1ccc2c(c1)OC(C)(c1ccc(OCCN3CCCCC3)cc1)C1=C2COc2cc(OC(=O)C(C)(C)C)ccc21` (stereo not drawn) [Compound 41, 2,2-Dimethyl-propionic acid 8-(2,2-dimethyl-propionyloxy)-11-methyl-11-[4-(2-piperidin-1-yl-ethoxy)-phenyl]-5,11-dihydro-chromeno[4,3-c]chromen-2-yl ester], for which the EC50 in test [1] (Homo sapiens) and in test [2] (Homo sapiens) was > 10000 nM throughout. Further, the IC50 in test [1] (Homo sapiens) was 550 nM; in test [2] (setting [4]), > 10000 nM; in test [3] (setting [5]) it was 1.9 µM.

As for `Oc1ccc2c(c1)OC(c1ccc(OCCN3CCCCC3)cc1)C1=C2CCOc2ccccc21` (single isomer, unassigned) [Compound 132], the IC50 in test [1] was found to be 548 nM; in test [2] (setting [6]) it was 1280 nM; in test [3] (setting [5]), 0.0048 µM.

Turning to `CC(C)(C)C(=O)Oc1ccc2c(c1)OCC1=C2C(c2ccc(OCCN3CCCCC3)cc2)Oc2ccccc21` (single isomer, unassigned) [Compound 172, 2,2-Dimethyl-propionic acid 5R*-(−)-[4-(2-piperidin-1-yl-ethoxy)-phenyl]-5,11-dihydro-chromeno[4,3-c]chromen-2-yl ester], the IC50 was 68.4 nM in test [1], 2280 nM in test [2] (setting [6]) and 0.26 µM in test [3] (setting [5]).

Consider `Oc1ccc2c(c1)OC(c1ccc(OCCN3CCCCC3)cc1)C1=C2CCOc2cc(O)ccc21` (single isomer, unassigned) [Compound 100, 5S*-(−)-[4-(2-Piperidin-1-yl-ethoxy)-phenyl]-11,12-dihydro-5H-6,13-dioxa-benzo[3,4]cyclohepta[1,2-a]naphthalene-2,8-diol], for which the IC50 stood at 19 nM in test [1] (Homo sapiens), 75 nM in test [2] (setting [4]) and 0.0026 µM in test [3].

Consider `CN(C)CCOc1ccc(C2Oc3cc(O)ccc3C3=C2c2ccc(O)cc2OCC3)cc1` (single isomer, unassigned) [Compound 163], for which the IC50 in test [1] stood at 405 nM; in test [2] (setting [6]), 687 nM.

In test [1], `Oc1ccc2c(c1)OC(c1ccc(OCCN3CCCCCC3)cc1)C1=C2CCOc2cc(O)ccc21` (single isomer, unassigned) [Compound 166] yielded an IC50 of 41 nM.

Take `CC(C)(C)C(=O)Oc1ccc2c(c1)OC(c1ccc(OCCN3CCCCC3)cc1)C1=C2CCOc2cc(OC(=O)C(C)(C)C)ccc21` (single isomer, unassigned) [Compound 180]: the IC50 was 0.9 nM in test [1] and 655 nM in test [2] (setting [6]).

Regarding `CN(C)CCOc1ccc(C2Oc3ccccc3C3=C2c2ccc(O)cc2OCC3)cc1` (single isomer, unassigned) [Compound 151], the IC50 in test [1] came to 605 nM; in test [2] (setting [6]) it was 2760 nM.

`Oc1ccc2c(c1)OC(c1ccc(OCCN3CCCCCC3)cc1)C1=C2CCOc2cc(O)ccc21` (single isomer, unassigned) [Compound 165]: the IC50 in test [1] was 128 nM.

For the compound `Oc1ccc2c(c1)OC(c1ccc(OCCN3CCCCC3)cc1)C1=C2CCCOc2cc(O)ccc21` (single isomer, unassigned) [Compound 126], the IC50 in test [1] is 78 nM; in test [2] (setting [6]) it was 245 nM.

`Oc1ccc2c(c1)OC(c1ccc(OCCN3CCCCC3)cc1)C1=C2CCCOc2cc(O)ccc21` (single isomer, unassigned) [Compound 125]: the IC50 was found to be 1620 nM in test [1] and 4700 nM in test [2] (setting [6]).

As for `CC(C)(C)C(=O)Oc1ccc2c(c1)OC(C)(c1ccc(OCCN3CCCC3)cc1)C1=C2COc2cc(OC(=O)C(C)(C)C)ccc21` (stereo not drawn) [Compound 30, 2,2-Dimethyl-propionic acid, 8-(2,2-dimethyl-propionyloxy)-5-methyl-5-[4-(2-pyrrolidin-1-yl-ethoxy)-phenyl]-5,11-dihydro-chromeno[4,3-c]chromen-2-yl ester], the EC50 in test [1] (Homo sapiens) and in test [2] (Homo sapiens) was > 10000 nM in each case. Further, the IC50 in test [1] (Homo sapiens) came to 630 nM; in test [2] (setting [4]), 2200 nM.

As for `COc1ccc2c(c1)O[C@@H](c1ccc(OCCN3CCCCC3)cc1)C1=C2COc2cc(O)ccc21` (single isomer, unassigned) [Compound 176, 8-Methoxy-5S-[4-(2-piperidin-1-yl-ethoxy)-phenyl]-5,11-dihydro-chromeno[4,3-c]chromen-2-ol], the IC50 in test [3] (setting [5]) turned out to be 0.024 µM.

Take `CN(C)CCOc1ccc(C2Oc3ccccc3C3=C2c2ccc(O)cc2OCC3)cc1` (single isomer, unassigned) [Compound 150]: the IC50 was 850 nM in test [1] and 2940 nM in test [2] (setting [6]).

With `CC(C)(C)C(=O)Oc1ccc2c(c1)OC(c1ccc(OCCN3CCCCC3)cc1)C1=C2CCOc2cc(OC(=O)C(C)(C)C)ccc21` (single isomer, unassigned) [Compound 179], the results for the IC50 in test [1] and in test [2] (setting [6]) were 9 nM and 1870 nM, respectively.

As for `COC1Oc2cc(OC(=O)C(C)(C)C)ccc2C2=C1c1ccc(OC(=O)C(C)(C)C)cc1OC2c1ccc(OCCN2CCCCC2)cc1` (stereo not drawn) [Compound 27], the IC50 in test [3] (setting [5]) was 0.69 µM.
